Consider 39 compounds from patent US9879036B2, “Mitochondrial aldehyde dehydrogenase-2 binding compounds and methods of use thereof” (Aviv Therapeutics, Inc., priority 2014, dated 2018).

Residue numbers refer to the chain shown, from its start.

Assay type in all cases: biochemical
Test [1] concerns the target T1, ALDH2*1/*2 (Homo sapiens, UniProt P05091, E504K).
T1 construct: His-tag; made in house; host or cells: E. coli BL21 (pETDuet-1 co-expression)
T1 sequence (P05091 18-517): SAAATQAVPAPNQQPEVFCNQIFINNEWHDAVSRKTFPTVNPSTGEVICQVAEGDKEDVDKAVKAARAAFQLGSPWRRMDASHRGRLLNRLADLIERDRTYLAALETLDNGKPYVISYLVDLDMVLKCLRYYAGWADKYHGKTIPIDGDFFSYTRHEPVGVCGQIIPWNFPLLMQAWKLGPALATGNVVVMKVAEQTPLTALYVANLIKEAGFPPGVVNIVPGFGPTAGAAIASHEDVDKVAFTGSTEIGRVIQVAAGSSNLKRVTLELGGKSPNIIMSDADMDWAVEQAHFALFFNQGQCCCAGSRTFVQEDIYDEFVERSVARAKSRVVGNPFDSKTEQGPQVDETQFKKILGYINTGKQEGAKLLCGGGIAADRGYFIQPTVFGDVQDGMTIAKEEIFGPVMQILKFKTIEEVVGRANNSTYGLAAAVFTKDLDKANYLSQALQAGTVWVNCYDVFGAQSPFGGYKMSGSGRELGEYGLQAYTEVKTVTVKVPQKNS
T1 sequence (P05091 18-517 E504K): T1 sequence (P05091 18-517) with E487K
The test can be described thus: ALDH2 enzymatic activity, NADH accumulation at 340 nm, acetaldehyde substrate, heterozygous form. The settings on record: relative to baseline enzymatic activity (100%); for activity at 2.5 µM: 2.5 μM compound; for activity at 5 µM: 5 μM compound; for activity at 10 µM: 10 μM compound; for activity at 20 µM: 20 μM compound. On the procedure: (§1) ALDH2 catalyzes the oxidative reaction of substrate acetaldehyde to acetic acid using NAD^+ as a cofactor. Enzymatic activity, or catalytic rate, of aldehyde dehydrogenase (ALDH2) are measured spectrophotometrically at UV wavelength λ340 nm by the accumulation of reduced product NADH derived from NAD^+. Absorbance at λ340 nm is quantitatively proportional to the amount of NADH being produced over time (6.22 O.D. unit=1 mmol of NADH, measured in a 1-cm width standard cuvette). This method is well-established in the literature [e.g. Rex et al., Alcohol Clin. Exp. Res. 9, 147 (1985)].
(§2) ALDH2 catalyzes the oxidative reaction of substrate acetaldehyde to acetic acid using NAD^+ as a cofactor. Enzymatic activity, or catalytic rate, of aldehyde dehydrogenase (ALDH2) can be measured spectrophotometrically at UV wavelength λ340 nm by the accumulation of reduced product NADH derived from NAD^+. Absorbance at λ340 nm is quantitatively proportional to the amount of NADH being produced over time (6.22 O.D. unit=1 mmol of NADH, measured in a 1-cm width standard cuvette). This method is well-established in the literature [e.g. Rex et al., Alcohol Clin. Exp. Res. 9, 147 (1985)].
(§3) Cloning, expression and purification of human ALDH2 wild type and ALDH2*2 recombinant mutant enzymes: Full-length wild type human ALDH2 cDNA was purchased from ATCC (No. MGC-1806. GenBank ID: BC002967). The 18-amino acid mitochondria transport signal sequence was removed by PCR and cloned into the NheI/HindIII sites of a His-tag vector, pTrcHis, using standard molecular cloning techniques. The human ALDH2* cDNA construct containing the Asian E487K mutation was obtained by site-directed mutagenesis to create the E487K substitution of the wild type ALDH2. Both human clones were designed to express a recombinant protein with the His-tag at the N-terminus of the protein. For the co-expression experiments of human ALDH2 wild type and ALDH2*2 heterotetramers, a wild type ALDH2 gene and a ALDH2 E487K gene were inserted separately into the two multiple cloning sites of pETDuet-1 vector. (Novagen, CA, USA). All the vectors were transformed into BL21 E. coli host cells and subjected to 0.5 mM IPTG induction for protein expression at 30° C. Purifications of the recombinant proteins by affinity nickel columns (HisTrap, GE Healthy Science, USA) were carried out using standard protocols according to manufacturer's instructions (Novagen, USA).
(§4) ALDH2 catalyzes the oxidative reaction of substrate acetaldehyde to acetic acid using NAD^+ as a cofactor. Enzymatic activity, or catalytic rate, of aldehyde dehydrogenase (ALDH2) can be measured spectrophotometrically at UV wavelength λ340 nm by the accumulation of reduced product NADH derived from NAD^+. Because compounds of formula (I) are considered to be agonists or “activators” of ALDH2 the enzymatic activity measured will exceed 100% of the baseline enzymatic activity of the enzyme in its normal activation state. As the concentration of the compounds of formula (I) decreases from 20 micromolar to 0.16 micromolar in the presence of ALDH, a decrease in the activation of enzymatic activity is observed for the wild-type ALDH2*1/*1 and the heterozygous form ALDH2*1/*2.

Test [2] concerns the target T2, ALDH2 (Homo sapiens, UniProt P05091).
T2 construct: His-tag (N); made in house; host or cells: E. coli BL21
T2 sequence (P05091 18-517): T1 sequence (P05091 18-517)
In words: ALDH2 activity with 20 μM of the compound (Table 3). The conditions noted are these: 20 μM compound. How it is done: as §1, §2, §4

Test [3] has as its target T3, ALDH2*1/*1 (Homo sapiens, UniProt P05091).
T3 construct: His-tag (N); made in house; host or cells: E. coli BL21 (pTrcHis vector)
T3 sequence (P05091 18-517): T1 sequence (P05091 18-517)
In words: ALDH2 enzymatic activity, NADH accumulation at 340 nm, acetaldehyde substrate, wild type. The settings on record: relative to baseline enzymatic activity (100%); for activity at 2.5 µM: 2.5 μM compound; for activity at 5 µM: 5 μM compound; for activity at 10 µM: 10 μM compound; for activity at 20 µM: 20 μM compound. On the procedure:
as §1, §2, §3, §4

For the compound `COc1ccc(CNC(=O)c2cc(-c3sccc3CO)ccc2OCC2CC2)cc1F` [AC28], in test [1], the activity at 2.5 µM was 201%, the activity at 5 µM amounted to 239%, the activity at 10 µM is 338% and the activity at 20 µM stood at 456%. Moreover, the activity at 20 µM in test [2] was greater than 250%. For the same compound, in test [3], the activity at 2.5 µM is 197%, the activity at 5 µM worked out at 252%, the activity at 10 µM was 366% and the activity at 20 µM turned out to be 430%.

For `COc1ccc(CNC(=O)c2cc(-c3c(CO)cccc3N(C)C)cnc2OCC2CC2)cc1F` [AC15], in test [1], the activity at 2.5 µM is 105%, the activity at 5 µM is 129%, the activity at 10 µM amounted to 160% and the activity at 20 µM is 203%. For the same compound, in test [2], the activity at 20 µM lay in the range of 150 to 250%. In test [3], the activity at 2.5 µM stood at 124%, the activity at 5 µM stood at 106%, the activity at 10 µM amounted to 143% and the activity at 20 µM came out at 169%.

Turning to `O=C(NCc1ccccc1)c1cc(-c2ccccc2CO)cnc1OCC1CC1` [AC55], the activity at 20 µM in test [2] was in the range of 100 to 150%.

`COc1ccc(CNC(=O)c2cc(-c3ccccc3C(=O)N(C)C)cnc2OCC2CC2)cc1F` [AC79]: in test [2], the activity at 20 µM lay within 100 to 150%.

With `COc1ccc(CNC(=O)c2cc(-c3n[nH]cc3CO)cnc2OCC2CC2)cc1F` [AC40], in test [2], the activity at 20 µM lay within 100 to 150%.

For `CCCOc1ccc(-c2cnccc2CO)cc1C(=O)NCc1ccc(OC)c(F)c1` [AC99], the activity at 20 µM in test [2] lay within 150 to 250%.

As for `COc1ccc(CNC(=O)c2cc(-c3ccccc3C(=O)O)cnc2OCC2CC2)cc1F` [AC75], the activity at 20 µM in test [2] lay within 100 to 150%.

In the case of `O=C(NCc1ccc2c(c1)OCO2)c1cc(-c2ncccc2CO)ccc1OCC1CC1` [AC43], in test [2], the activity at 20 µM lay in the range of 150 to 250%.

Regarding `CCCOc1ccc(-c2ncccc2CO)cc1C(=O)NCc1ccc(OC)c(F)c1` [AC100], the activity at 20 µM in test [2] was 150 to 250%.

For `COc1c(F)cc(CNC(=O)c2cc(-c3ncccc3CO)ccc2OCC2CC2)cc1Cl` [AC147], the activity at 20 µM in test [2] was 150 to 250%.

On to `COc1ccc(CNC(=O)c2cc(-c3ncccc3CO)ccc2OC2CCCC2)cc1F` [AC108], for which, in test [2], the activity at 20 µM is greater than 250%.

In the case of `O=C(NCc1ccc(Cl)c(Cl)c1)c1cc(-c2ccccc2CO)cnc1OCC1CC1` [AC54], the activity at 20 µM in test [2] lay in the range of 150 to 250%.

Turning to `COc1ccc(CNC(=O)c2cc(-c3nocc3CO)cnc2OCC2CC2)cc1F` [AC41], the activity at 20 µM in test [2] fell in the range of 100 to 150%.

Regarding `Cc1ccc(CNC(=O)c2cc(-c3ccccc3CO)cnc2OCC2CC2)cc1` [AC48], the activity at 20 µM in test [2] fell in the range of 100 to 150%.

With `COc1ccc(CNC(=O)c2cc(-c3ccccc3/C=C/C(C)=O)cnc2OCC2CC2)cc1F` [AC77], the activity at 20 µM in test [2] was in the range of 100 to 150%.

On to `CNCc1ccccc1-c1ccc(OCC2CC2)c(C(=O)NCc2ccc(OC)c(F)c2)c1` [AC83], for which the activity at 20 µM in test [2] lay within 150 to 250%.

Take `COc1ccc(CNC(=O)c2cc(-c3ccccc3O)ccc2OCC2CC2)cc1F` [AC82]: the activity at 20 µM in test [2] fell in the range of 100 to 150%.

As to `COc1ccc(CNC(=O)c2cc(-c3ncccc3CO)ccc2OCC2CCCC2)cc1F` [AC166], the activity at 20 µM in test [2] was greater than 250%.

With `COc1c(F)cc(CNC(=O)c2cc(-c3ncccc3CO)ccc2OCC2CC2)cc1F` [AC145], the activity at 20 µM in test [2] fell in the range of 150 to 250%.

Consider `COc1ccc(CNC(=O)c2cc(-c3cnccc3CO)ccc2OC)cc1F` [AC95], for which the activity at 20 µM in test [2] fell in the range of 150 to 250%.

Turning to `COc1ccc(CNC(=O)c2cc(-c3ccccc3OC)ccc2OCC2CC2)cc1F` [AC78], the activity at 20 µM in test [2] was 100 to 150%.

As to `COc1ccc(CNC(=O)c2cc(-c3ncccc3CO)ccc2O)cc1F` [AC94], in test [2], the activity at 20 µM fell in the range of 100 to 150%.

Consider `COc1ccc(CNC(=O)c2cc(-c3ccccc3CN(C)C)cnc2OCC2CC2)cc1F` [AC76], for which the activity at 20 µM in test [2] lay in the range of 100 to 150%.

As to `COc1ccc(CNC(=O)c2cc(-c3ncccc3CO)ccc2OCC2CC2)cc1OC` [AC44], the activity at 20 µM in test [2] lay in the range of 150 to 250%.

With `COc1ccc(CNC(=O)c2cc(-c3ccccc3C(C)O)cnc2OCC2CC2)cc1F` (stereo not shown) [AC89], in test [2], the activity at 20 µM was in the range of 100 to 150%.

Consider `COc1ccc(CNC(=O)c2cc(-c3ncccc3CO)ccc2OC)cc1F` [AC96], for which the activity at 20 µM in test [2] fell in the range of 150 to 250%.

Consider `COc1ccc(CNC(=O)c2cc(-c3ncccc3CO)ccc2OC2CCCCCC2)cc1F` [AC164], for which the activity at 20 µM in test [2] is greater than 250%.

Take `COc1ccc(CNC(=O)c2cc(-c3ncccc3CO)ccc2OC2CCCCC2)cc1F` [AC110]: the activity at 20 µM in test [2] is greater than 250%.

With `COc1ccc(CNC(=O)c2cc(-c3ncccc3CO)ccc2OCC2CCCCC2)cc1F` [AC163], the activity at 20 µM in test [2] was in the range of 150 to 250%.

On to `COc1ccc(CNC(=O)c2cc(-c3cnccc3CO)ccc2OCC(C)C)cc1F` [AC111], for which, in test [2], the activity at 20 µM is greater than 250%.

With `COc1ccc(CNC(=O)c2cc(-c3ccccc3/C=N/O)cnc2OCC2CC2)cc1F` [AC90], the activity at 20 µM in test [2] fell in the range of 100 to 150%.

As to `CCOc1ccc(-c2ncccc2CO)cc1C(=O)NCc1ccc(OC)c(F)c1` [AC98], the activity at 20 µM in test [2] is 150 to 250%.

`O=C(NCc1ccc(Cl)cc1)c1cc(-c2ccccc2CO)cnc1OCC1CC1` [AC52]: the activity at 20 µM in test [2] was in the range of 100 to 150%.

In the case of `COc1ccc(CNC(=O)c2cc(-c3cnccc3CO)ccc2OC2CC2)cc1F` [AC103], the activity at 20 µM in test [2] was 150 to 250%.

On to `O=C(NCc1cc2c(cc1Cl)OCO2)c1cc(-c2ncccc2CO)ccc1OCC1CC1` [AC46], for which, in test [2], the activity at 20 µM lay within 100 to 150%.

On to `O=C(NCc1ccc(C(F)(F)F)cc1)c1cc(-c2ccccc2CO)cnc1OCC1CC1` [AC49], for which the activity at 20 µM in test [2] is 100 to 150%.

For the compound `COc1ccc(CNC(=O)c2cc(-c3cnccc3CO)ccc2OC2CCC2)cc1F` [AC105], the activity at 20 µM in test [2] is 150 to 250%.

Turning to `O=C(NCc1ccc(F)cc1)c1cc(-c2ccccc2CO)cnc1OCC1CC1` [AC53], the activity at 20 µM in test [2] lay in the range of 100 to 150%.

In the case of `[2H]C([2H])([2H])Oc1ccc(CNC(=O)c2cc(-c3ncccc3CO)ccc2OCC2CC2)cc1F` [AC153], the activity at 20 µM in test [2] was greater than 250%.
